Experimental findings from US20250092044A1, “Kinase Inhibitors” (Incyte Corporation, priority 2023, published 2025) are described below.

Molecules are shown by their SMILES. Bounds are passed on as bounds.

A word on the AUC: it is the area under the concentration-time curve, a measure of exposure.

For one data set, the target named is CYP3A4 (Homo sapiens (Human), UniProt P08684). The data set can be described thus: Time Dependent Inhibition (TDI) of CYP. Type of data set: in vitro ADME. The settings on record: for TDI 3A4: Kobs, 30 min pre-incubation with NADPH; for TDI 3A4 / Kobs: human liver microsomes, 10 μM; for CYP function remaining / Kobs: time dependent inhibition of CYPs; for CYP function remaining: after pre-incubation with NADPH. The text has this:
Inhibition of P450 enzymes can be classified as either reversible or time-dependent inhibition (TDI). This in vitro assay is designed to detect an increase in CYP inhibition as a result of biotransformation and/or bioactivation (TDI). Potential mechanisms for this include the formation of a tight-binding, quasi-irreversible inhibitory metabolite complex or the inactivation of P450 enzymes by covalent adduct formation of metabolites. While this experiment employs a 10-fold dilution to diminish metabolite concentrations and therefore effects of reversible inhibition, it is possible (but not common) that a metabolite that is an extremely potent CYP inhibitor could result in a positive result.
The results are from a cocktail of CYP specific probe substrates at 4 times their Km concentrations for CYP2C9 (diclofenac), CYP2C19 (S-mephenytoin), CYP2D6 (bufuralol) and CYP3A4 (midazolam) using human liver microsomes (HLM). The HLMs were pre-incubated with test compound(s) at a concentration 10 μM for 30 min in the presence (+N) or absence (−N) of a NADPH regenerating system, diluted 10-fold, and incubated for 8 min in the presence of the substrate cocktail with the addition of a fresh aliquot of NADPH regenerating system. A calibration curve of metabolite standards was used to quantitatively measure the enzyme activity using LC-MS/MS. In addition, incubations with known time dependent inhibitors, tienilic aicd (CYP2C9), ticlopidine (CYP2C19), paroxetine (CYP2D6), and troleandomycin (CYP3A4), used as positive controls were pre-incubated 30 min with or without a NADPH regenerating system.
The percentage of control CYP2C9, CYP2C19, CYP2D6, and CYP3A4 activity remaining following pre-incubation of the compounds with NADPH is corrected for the corresponding control vehicle activity and then calculated based on 0 minutes as 100%. A linear regression plot of the natural log of % activity remaining versus time for each isozyme is used to calculate the slope. The −slope is equal to the rate of enzyme loss, or the Kobs. […] Examples 29-30 have Kobs from 0.005-0.02 indicating a medium to low potential for time dependent inhibition of CYPs corresponding to 70-90% CYP function remaining.
For orientation: Microsomes from liver hold many membrane-bound enzymes, among them those of drug oxidation.

Data set [1] in a line: In Vivo Pharmacokinetics (cynomolgus monkey). Details: species or system Cynomolgus monkeys. The settings on record: both sexes, plasma. As for the experimental part: Test compounds were administered to male Sprague Dawley rats or male and female Cynomolgus monkeys intravenously or via oral gavage. For intravenous (IV) dosing, test compounds were dosed at 1 mg/kg using a formulation of 10% dimethylacetamide (DMAC), 10% propylene glycol (PG) in acidified saline via IV bolus for rat or 10 min IV infusion for monkey. For oral (PO) dosing, test compounds were dosed at 3.0 mg/kg using 5% DMAC in 0.5% methylcellulose in citrate buffer (PH˜2.5). Blood samples were collected at predose and various time points up to 24 hours postdose. All blood samples were collected using EDTA as the anticoagulant and centrifuged to obtain plasma samples. The plasma concentrations of test compounds were determined by LC-MS/MS methods. The measured plasma concentrations were used to calculate PK parameters by standard noncompartmental methods using Phoenix® WinNonlin software program (version 8.0, Pharsight Corporation) or similar software. In rats and monkeys, cassette dosing of test compounds were conducted to obtain preliminary PK parameters. In vivo pharmacokinetic experiments with male beagle dogs may be performed under the conditions described above.

A short description of data set [2]: In Vivo Pharmacokinetics (mouse). Particulars: plasma, PO.
Setting [3] is: PO 3.0 mg/kg, read-out: CYNO PO AUC.

CYP3A4, sequence (P08684 whole entry): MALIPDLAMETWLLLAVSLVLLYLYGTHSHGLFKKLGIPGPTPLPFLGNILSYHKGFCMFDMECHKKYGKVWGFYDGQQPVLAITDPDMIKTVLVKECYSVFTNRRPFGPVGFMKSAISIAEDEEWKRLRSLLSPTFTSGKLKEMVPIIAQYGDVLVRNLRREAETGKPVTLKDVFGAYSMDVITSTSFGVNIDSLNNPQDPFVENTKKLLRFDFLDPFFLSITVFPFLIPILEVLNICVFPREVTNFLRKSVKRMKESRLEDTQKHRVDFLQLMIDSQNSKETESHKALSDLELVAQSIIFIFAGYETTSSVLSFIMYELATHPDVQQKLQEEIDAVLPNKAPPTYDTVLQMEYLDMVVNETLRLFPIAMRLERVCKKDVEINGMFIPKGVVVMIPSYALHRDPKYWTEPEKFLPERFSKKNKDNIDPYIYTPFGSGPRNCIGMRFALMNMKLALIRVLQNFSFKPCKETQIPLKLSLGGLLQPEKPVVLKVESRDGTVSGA

Consider `COc1nn(C)cc1-c1[nH]c2ncc3c(c2c1-c1ccc2c(cnn2C)c1)n(C1CCOCC1)c(=O)n3C` [Comparative Example A, reference compound], for which, on CYP3A4, the “TDI 3A4” value is reported as “⋄⋄⋄⋄ (≥0.04)”, the CYP function remaining result is “about 30%” and the Kobs entry is given as “around 0.04”. For the same molecule, the AUC in data set [1] (setting [3]) was not above 0.5 µM·h. The same molecule had an AUC in data set [2] of more than 1.5 µM·h.
For `[2H]C([2H])([2H])n1ncc2cc(-c3c(-c4cn(C)nc4OC)[nH]c4ncc5c(c34)n(C3CCOCC3)c(=O)n5C)ccc21` [Comparative Example B, reference compound], on CYP3A4, the “TDI 3A4” value is given as “⋄⋄⋄⋄ (≥0.04)”, the CYP function remaining result is listed as “about 30%” and the Kobs result is “around 0.04”. Besides, the AUC in data set [1] (setting [3]) was not above 0.5 µM·h.
In data set [2], `COc1nn(C)cc1-c1[nH]c2ncc3c(c2c1-c1ccc2c(cnn2C)c1)n([C@H]1CC[C@@H](CC#N)CC1)c(=O)n3C` [E, reference compound] returned an exposure (AUC) of more than 1.5 µM·h.
In the case of `[2H]C([2H])([2H])N(Cc1ccc(-c2[nH]c3ncc4c(c3c2-c2ccc3c(c2)CC(C)(C)O3)n([C@@H]2CC[C@@H](NC(=O)OC)C2)c(=O)n4C([2H])([2H])[2H])cc1)C([2H])([2H])[2H]` [Example 25, Methyl ((1R,3R)-3-(7-(4-((bis(methyl-d3)amino)methyl)phenyl)-8-(2,2-dimethyl-2,3-dihydrobenzofuran-5-yl)-3-(methyl-d3)-2-oxo-3,6-dihydroimidazo[4,5-d]pyrrolo[2,3-b]pyridin-1(2H)-yl)cyclopentyl)carbamate], the “TDI 3A4” value at CYP3A4 is reported as “⋄ (≤0.005)”. In addition, the AUC in data set [1] (PO, 1 mg/kg) was not above 0.5 µM·h.
As for `[2H]C([2H])([2H])n1c(=O)n([C@@H]2CC[C@@H](NC(=O)OC)C2)c2c3c(-c4ccc5c(cnn5C(C)C)c4)c(-c4ccc(CN(C)C)cc4)[nH]c3ncc21` [Example 26, Methyl ((1R,3R)-3-(7-(4-((dimethylamino)methyl)phenyl)-8-(1-isopropyl-1H-indazol-5-yl)-3-(methyl-d3)-2-oxo-3,6-dihydroimidazo[4,5-d]pyrrolo[2,3-b]pyridin-1(2H)-yl)cyclopentyl)carbamate], the “TDI 3A4” value at CYP3A4 was “⋄ (≤0.005)”. Besides, the AUC in data set [1] (setting [3]) was in the range of 0.5 to 1.5 µM·h.
With `[2H]C([2H])([2H])N(Cc1ccc(-c2[nH]c3ncc4c(c3c2-c2ccc(OCCOC)cc2)n([C@@H]2CC[C@@H](NC(=O)OC)C2)c(=O)n4C([2H])([2H])[2H])cc1)C([2H])([2H])[2H]` [Example 27, Methyl ((1R,3R)-3-(7-(4-((bis(methyl-d3)amino)methyl)phenyl)-8-(4-(2-methoxyethoxy)phenyl)-3-(methyl-d3)-2-oxo-3,6-dihydroimidazo[4,5-d]pyrrolo[2,3-b]pyridin-1(2H)-yl)cyclopentyl)carbamate], the “TDI 3A4” value at CYP3A4 was “⋄ (≤0.005)”. The exposure (AUC) in data set [1] (setting [3]) is more than 1.5 µM·h.
In the case of `COC(=O)N[C@@H]1CC[C@@H](n2c(=O)n(C)c3cnc4[nH]c(-c5ccc(CN(C)C)cc5)c(-c5ccc(F)cc5)c4c32)C1` [Example 28, Methyl ((1R,3R)-3-(7-(4-((dimethylamino)methyl)phenyl)-8-(4-fluorophenyl)-3-methyl-2-oxo-3,6-dihydroimidazo[4,5-d]pyrrolo[2,3-b]pyridin-1(2H)-yl)cyclopentyl)carbamate], at CYP3A4, the “TDI 3A4” value is given as “⋄ (≤0.005)”.
Same read-out and setting: the result for `[2H]C([2H])([2H])N(Cc1ccc(-c2[nH]c3ncc4c(c3c2-c2ccc3c(c2)COC3(C)C)n([C@@H]2CC[C@@H](NC(=O)OC)C2)c(=O)n4C([2H])([2H])[2H])cc1)C([2H])([2H])[2H]` [Example 29, Methyl ((1R,3R)-3-(7-(4-((bis(methyl-d3)amino)methyl)phenyl)-8-(1,1-dimethyl-1,3-dihydroisobenzofuran-5-yl)-3-(methyl-d3)-2-oxo-3,6-dihydroimidazo[4,5-d]pyrrolo[2,3-b]pyridin-1(2H)-yl)cyclopentyl)carbamate] reads “⋄⋄ (>0.005 to ≤0.02)”.
Still for that read-out and setting: for `[2H]C([2H])([2H])n1c(=O)n([C@@H]2CC[C@@H](NC(=O)OC)C2)c2c3c(-c4ccc5c(c4)COC5(C)C)c(-c4ccc(C(=O)N(C)C)cc4)[nH]c3ncc21` [Example 30, methyl ((1R,3R)-3-(8-(1,1-dimethyl-1,3-dihydroisobenzofuran-5-yl)-7-(4-(dimethylcarbamoyl)phenyl)-3-(methyl-d3)-2-oxo-3,6-dihydroimidazo[4,5-d]pyrrolo[2,3-b]pyridin-1(2H)-yl)cyclopentyl)carbamate] the value was “⋄⋄ (>0.005 to ≤0.02)”.
